Results: patent US6773896B2, “Method for direct measurement of coagulation factor VIIa activity in plasma” (Warner-Lambert Company, priority 2001, dated 2004)
pIC50, pKi: −log10 of the molar value.

Legend:
thrombin = thrombin (Homo sapiens, UniProt P00734); assay: Inhibition of thrombin (stated potency); type: biochemical
FVIIa/TF complex = target: T1, FVIIa/TF complex (Homo sapiens, UniProt P08709); assay: In vitro one-stage FVIIa activity assay in human plasma (Spectrozyme FVIIa cleavage); type: biochemical; details: for Effect on FVIIa activity in human plasma: 0.625% pooled human plasma, 10 nM FVIIa, 15 nM TF, vs own control
T1 construct: purchased American Diagnostica, Greenwich, Conn
Procedure: The proteolytic activity of FVIIa was measured by cleavage of paranitroanilide (pNA) substrate (Spectrozyme FVIIa) in a 96-well microtiter plate.
A series of samples containing enzyme inhibitors (0-300 μM) were added to well in a 96-well microtiter plate containing Tris-buffer ([…] Tris, pH 7.4, 100 mM NaCl), 0.625% plasma, 0.1% BSA. After addition of FVIIa (10 nM in final concentration), the plate was incubated for 15 minutes at 37° C. Then the TF (15 nM in final concentration) and CaCl2 (5 mM in final concentration) were added, and the plate was incubated for additional 15 minutes at 37° C. again. After incubation, the substrate (Spectrozyme FVIIa) was added at a final concentration of 0.5 mM to result in a final volume of 200 μL/well. The rate of change in absorbance at 405 nm was monitored by a Softmax plate reader (Molecular Devices).
Above four inhibitors were evaluated in pooled human plasma for their inhibitory effects on FVIIa activity. Effects of FVIIai, 2-[6-(3-Carbamimidoyl-phenoxy)-3,5-difluoro-4-(1-methyl-3-phenyl-propylamino)-pyridin-2-yloxy]-5-dimethylamino-4-methyl-benzoic acid, ({2-(5-Carbamimidoyl-2-hydroxy-phenoxy)-3,5-difluoro-6-[3-(1-methyl-4,5-dihydro-1H-imidazol-2-yl)-phenoxy]-pyridin-4-yl}-methyl-amino)-acetic acid, and (S)-4-[3-(cyclopentylmethylamino)-2-[(2-naphthalenylsulfony)amino]-3-oxopropyl]benzenecarboximidic acid hydrazide on FVIIa activity were compared with their own control group. The activity of FVIIa was obtained with a final concentration of 0.625% human plasma, 10 nM FVIIa, 15 nM TF, 5 mM CaCl2, and 0.5 mM SPZFVIIa.

FVIIa [1] = target: T2, FVIIa (Homo sapiens, UniProt P08709); assay: Ex vivo FVIIa activity assay in plasma of hypercholesterolemic rabbits (balloon-induced injury model of thrombosis); parameters: species or system rabbit; details: IV bolus 0.3 and 1.0 mg/kg, 3 minutes after administration
T2 construct: purchased American Diagnostica, Greenwich, Conn
Procedure: (§1) The FVIIa activity was measured in plasma collected from hypercholesterolemic rabbits in a balloon-induced injury model of thrombosis. The rabbits received two doses of 7-[(R)-3-(3-Amino-benzyl)-4-(4-amino-phenyl)-4-methyl-2,5-dioxo-imidazolidin-1-ylmethyl]-naphthalene-2-carboxamidine, IV bolus, 0.3 mg/kg (n=5) and 1.0 mg/kg (n=6). Blood samples were collected before and 3 minutes after administration, followed by plasma preparation. Plasma samples were extracted using CH3CN and reconstituted in Tris-buffer. The protocol is the same as ex vivo study of 2-[6-(3-Carbamimidoyl-phenoxy)-3,5-difluoro-4-(1-methyl-3-phenyl-propylamino)-pyridin-2-yloxy]-5-dimethylamino-4-methyl-benzoic acid. The plasma levels of 7-[(R)-3-(3-Amino-benzyl)-4-(4-amino-phenyl)-4-methyl-2,5-dioxo-imidazolidin-1-ylmethyl]-naphthalene-2-carboxamidine were calculated based on the test plasma FVIIa activity and an IC50 standard curve. […]
(§2) The inhibitory effect and plasma concentration of 7-[(R)-3-(3-Amino-benzyl)-4-(4-amino-phenyl)-4-methyl-2,5-dioxo-imidazolidin-1-ylmethyl]-naphthalene-2-carboxamidine was determined in balloon-induced injury model of thrombosis in hypercholesterolemic rabbits. […] The inhibitory effect of 7-[(R)-3-(3-Amino-benzyl)-4-(4-amino-phenyl)-4-methyl-2,5-dioxo-imidazolidin-1-ylmethyl]-naphthalene-2-carboxamidine was measured by FVIIa activity assay. […]

[2] = Plasma level in hypercholesterolemic rabbits calculated from FVIIa activity; type: in vivo, rabbit; details: IV bolus 0.3 and 1.0 mg/kg, 3 minutes after administration
Procedure: as §1, §2

FVIIa [3] = target: T2, FVIIa; assay: Ex vivo FVIIa activity assay in plasma from treated rabbits, two plasma concentrations; details: rabbit, 3 mg/kg IV bolus
Procedure: (§3) The FVIIa activity was measured in the plasma collected from rabbits that received 2-[6-(3-Carbamimidoyl-phenoxy)-3,5-difluoro-4-(1-methyl-3-phenyl-propylamino)-pyridin-2-yloxy]-5-dimethylamino-4-methyl-benzoic acid, IV bolus, 3 mg/kg (n=3). Blood samples were collected before and 1, 5, 10, 30, and 60 minutes after the onset of administration, followed by plasma preparation. 2-[6-(3-Carbamimidoyl-phenoxy)-3,5-difluoro-4-(1-methyl-3-phenyl-propylamino)-pyridin-2-yloxy]-5-dimethylamino-4-methyl-benzoic acid in plasma was extracted using 4 volumes of CH3CN to 1 volume of plasma. Precipitated proteins were removed by centrifugation at 2000 g for 5 minutes. Solvent was decanted into small glass tubes and dried at 37° C. under a stream of nitrogen, then reconstituted in Tris-buffer. The method of FVIIa activity assay is the same as in vitro study. FVIIa activity was determined by measuring the rate of absorbance change at 405 nm due to cleavage of the spectrozyme FVIIa (0.5 mM) by FVIIa/TF complex. Plasma concentrations of 2-[6-(3-Carbamimidoyl-phenoxy)-3,5-difluoro-4-(1-methyl-3-phenyl-propylamino)-pyridin-2-yloxy]-5-dimethylamino-4-methyl-benzo acid were determined by using a standards inhibition curve that were generated from rabbit plasma containing known amount of inhibitor and processed identically to test samples. […]

[4] = Ex vivo study in rabbit plasma: plasma concentration calculated from FVIIa activity; details: 3 mg/kg IV bolus, 1-60 min, n=3, calculated from FVIIa activity and IC50 standard curve
Procedure: as §3

human FVIIa = target: T3, human FVIIa (Homo sapiens, UniProt P08709); assay: Inhibition of human FVIIa (stated potency); type: biochemical; details: read-out: IC50 against human FVIIa
T3 sequence (P08709 213-466 limits assumed): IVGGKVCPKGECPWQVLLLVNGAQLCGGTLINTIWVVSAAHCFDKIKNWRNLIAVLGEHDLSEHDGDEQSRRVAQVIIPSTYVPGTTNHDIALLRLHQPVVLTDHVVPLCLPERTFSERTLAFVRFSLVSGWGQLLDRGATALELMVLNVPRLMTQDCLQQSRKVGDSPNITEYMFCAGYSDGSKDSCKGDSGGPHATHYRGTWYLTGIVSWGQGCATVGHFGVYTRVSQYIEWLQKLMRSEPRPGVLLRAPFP
T3 sequence (P08709 61-212 partner limits assumed): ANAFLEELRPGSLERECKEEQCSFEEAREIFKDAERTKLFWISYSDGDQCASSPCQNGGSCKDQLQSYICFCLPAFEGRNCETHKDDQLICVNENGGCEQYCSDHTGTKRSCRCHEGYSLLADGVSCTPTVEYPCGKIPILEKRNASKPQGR

T1 sequence (P13726 33-295 partner, one chain of several): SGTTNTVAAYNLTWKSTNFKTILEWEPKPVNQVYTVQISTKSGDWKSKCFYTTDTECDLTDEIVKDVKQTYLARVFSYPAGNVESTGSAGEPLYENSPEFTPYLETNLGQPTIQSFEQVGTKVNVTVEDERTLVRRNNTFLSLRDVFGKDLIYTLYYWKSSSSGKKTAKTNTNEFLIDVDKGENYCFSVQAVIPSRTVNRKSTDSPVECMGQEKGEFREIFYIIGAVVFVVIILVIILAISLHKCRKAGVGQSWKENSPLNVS
T2 sequence (P13726 33-295 partner, one chain of several): as above

N=C(NN)c1ccc(C[C@H](NS(=O)(=O)c2ccc3ccccc3c2)C(=O)NCC2CCCC2)cc1 [(S)-4-[3-(cyclopentylmethylamino)-2-[(2-naphthalenylsulfonyl)amino]-3-oxoprpoyl]-benzenecarboximidic acid hydrazide]
pIC50 (thrombin; read-out: IC50 against thrombin): 8.70
pKi (thrombin; read-out: Ki against thrombin): 9.42
Effect on FVIIa activity in human plasma (FVIIa/TF complex; 100 nM): did not alter FVIIa activity

CN1CCN=C1c1cccc(Oc2nc(Oc3cc(C(=N)N)ccc3O)c(F)c(N(C)CC(=O)O)c2F)c1 [({2-(5-Carbamimidoyl-2-hydroxy-phenoxy)-3,5-difluoro-6-[3-(1-methyl-4,5-dihydro-1H-imidazol-2-yl)-phenoxy]-pyridin-4-yl}-methyl-amino)-acetic acid]
Effect on FVIIa activity in human plasma (FVIIa/TF complex; 100 nM): did not alter FVIIa activity

C[C@@]1(c2ccc(N)cc2)C(=O)N(Cc2ccc3ccc(C(=N)N)cc3c2)C(=O)N1Cc1cccc(N)c1 [7-[(R)-3-(3-Amino-benzyl)-4-(4-amino-phenyl)-4-methyl-2,5-dioxo-imidazolidin-1-ylmethyl]-naphthalene-2 carboxamidine]
Ex vivo inhibitory effect on FVIIa activity (FVIIa [1]): dose-dependent changes in inhibitory effect
Plasma level [2]: dose-dependent changes

Cc1cc(Oc2nc(Oc3cccc(C(=N)N)c3)c(F)c(NC(C)CCc3ccccc3)c2F)c(C(=O)O)cc1N(C)C (centres unmarked) [2-[6-(3-Carbamimidoyl-phenoxy)-3,5-difluoro-4-(1-methyl-3-phenyl-propylamino)-pyridin-2-yloxy]-5-dimethylamino-4-methyl-benzoic acid]
Ex vivo inhibitory effect on FVIIa activity with 1.25% vs 0.625% plasma in the assay (FVIIa [3]): same inhibitory effect
Effect on FVIIa activity in human plasma (FVIIa/TF complex; 300 nM): significantly decreased FVIIa activity
Inhibition on FVIIa activity in human plasma over a series of concentrations (FVIIa/TF complex; human plasma, series of concentrations): dose-dependent inhibition
Plasma concentration after IV bolus administration [4]: time-dependent change in plasma concentration
pIC50 (human FVIIa): 7.82
